Results on 4 compounds are retold here after ChEMBL document CHEMBL5042470, “Combined Cardioprotective and Adipocyte Browning Effects Promoted by the Eutomer of Dual sEH/PPARγ Modulator” (J Med Chem, 2021).

For experiment [1], the system named is Heart. The experiment is described as follows: Cardioprotective activity in Langendorff-perfused wild-type C57BL/6 mouse heart assessed as increase in heart rate at 30 nM. In kind it is functional, tissue-based.
Experiment [2] relates to Heart. As to the kind of experiment: Cardioprotective activity in Langendorff-perfused wild-type C57BL/6 mouse heart assessed as increase in heart rate at 3 nM. Format: functional, tissue-based.
The subject of experiment [3] is SGBS. The experiment is described as follows: Induction of browning in human SGBS cells assessed as increase in UQCRC2 mRNA expression at 0.01 to 1 uM by qRT-PCR analysis. In kind it is functional, cell-based. The conditions noted are these: dose 0.01-1 µM.
The test system of experiment [4] is SGBS. As to the kind of experiment: Induction of cellular respiration in human SGBS cells assessed as increase in oxygen consumption rate at 0.01 to 1 uM with ATP-linked sequential addition of FCCP measured after 14 days by Seahorse XFe96 flux analyzer. Format: functional, cell-based. The conditions noted are these: dose 0.01-1 µM, time 14.0 day.
Experiment [5] concerns SGBS. The experiment is described as follows: Induction of basal respiration in human SGBS cells assessed as increase in oxygen consumption rate at 0.01 to 1 uM incubated for 14 days in presence of dibutyryl-cAMP by Seahorse XFe96 flux analyzer. In kind it is functional, cell-based. The conditions noted are these: dose 0.01-1 µM, time 14.0 day.
Experiment [6] relates to SGBS. As to the kind of experiment: Induction of browning in human SGBS cells assessed as increase in UCP1 mRNA expression at 0.01 to 1 uM by RT-PCR analysis. Format: functional, cell-based. The conditions noted are these: dose 0.01-1 µM.
In experiment [7] the test system is SGBS. The experiment is described as follows: Induction of proton leakage in human SGBS cells assessed as increase in oxygen consumption rate at 0.01 to 1 uM with sequential addition of oligomycin measured after 14 days by Seahorse XFe96 flux analyzer. As to conditions: dose 0.01-1 µM, time 14.0 day. In kind it is functional, cell-based.
The subject of experiment [8] is SGBS. The experiment is described as follows: Induction of adipogenic differentiation in human SGBS cells assessed as increase in perilipin A mRNA expression A at 0.01 to 1 uM by RT-PCR analysis. As to conditions: dose 0.01-1 µM. Format: functional, cell-based.
Experiment [9] has as its system SGBS. The experiment is described as follows: Induction of adipogenic differentiation in human SGBS cells assessed as intracellular lipid droplet accumulation at 0.01 to 1 uM measured after 4 days by Nile red staining based imaging analysis. In kind it is functional, cell-based. As to conditions: dose 0.01-1 µM, time 4.0 day.
Experiment [10] has as its target T1, Vitamin D3 receptor (Homo sapiens) (UniProt P11473).
T1 sequence (whole entry): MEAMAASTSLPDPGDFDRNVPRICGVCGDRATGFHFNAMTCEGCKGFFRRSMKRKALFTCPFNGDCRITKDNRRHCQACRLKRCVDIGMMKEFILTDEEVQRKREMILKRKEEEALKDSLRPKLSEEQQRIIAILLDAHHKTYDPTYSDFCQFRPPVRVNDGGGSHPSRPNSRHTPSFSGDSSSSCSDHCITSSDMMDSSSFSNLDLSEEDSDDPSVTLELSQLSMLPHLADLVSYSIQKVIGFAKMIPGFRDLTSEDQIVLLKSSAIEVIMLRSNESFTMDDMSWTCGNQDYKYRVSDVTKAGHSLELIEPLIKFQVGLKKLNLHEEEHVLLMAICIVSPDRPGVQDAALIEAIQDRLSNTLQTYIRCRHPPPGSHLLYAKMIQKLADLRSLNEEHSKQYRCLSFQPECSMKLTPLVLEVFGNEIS
As to the kind of experiment: Agonist activity at human GAL4 DBD-fused VDR LBD (119 to 427 residues) transfected in HEK293T cells assessed as fold activation at 10 uM incubated for 14 to 16 hrs by Renilla/Firefly dual-luciferase reporter assay. In kind it is cell-based. The conditions noted are these: time 14-16 hrs.

In experiment [11] the test system is Heart. The experiment is described as follows: Cardioprotective activity in Langendorff-perfused wild-type C57BL/6 mouse heart assessed as increase in heart rate at 300 nM. In kind it is functional, tissue-based.
The species named for experiment [12] is Mus musculus. The experiment is described as follows: Cardioprotective activity in Langendorff-perfused wild-type C57BL/6 mouse model of coronary occlusion induced ischemia/reperfusion assessed as decrease in left ventricular end diastolic pressure at 3 nmol/L followed by ischemia for 20 mins and measured 2 hrs after reperfusion […]. The conditions noted are these: time 140.0 min. In kind it is functional, organism-based.

In experiment [13] the target is T2, Retinoic acid receptor alpha (Homo sapiens) (UniProt P10276).
T2 sequence (whole entry): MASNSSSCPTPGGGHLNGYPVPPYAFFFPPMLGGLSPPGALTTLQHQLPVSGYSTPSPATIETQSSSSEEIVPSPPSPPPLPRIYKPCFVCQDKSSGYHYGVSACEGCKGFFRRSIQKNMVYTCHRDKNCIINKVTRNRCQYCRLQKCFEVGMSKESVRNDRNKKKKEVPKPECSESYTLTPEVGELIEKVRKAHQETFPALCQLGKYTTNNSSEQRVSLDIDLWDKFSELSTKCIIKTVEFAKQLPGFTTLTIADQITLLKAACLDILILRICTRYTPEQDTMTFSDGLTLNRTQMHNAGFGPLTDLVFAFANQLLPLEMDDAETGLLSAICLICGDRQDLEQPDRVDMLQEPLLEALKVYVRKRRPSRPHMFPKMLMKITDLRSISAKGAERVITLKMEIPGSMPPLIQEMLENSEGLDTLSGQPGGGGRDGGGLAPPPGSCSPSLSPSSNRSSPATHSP
As to the kind of experiment: Agonist activity at human GAL4 DBD-fused RARalpha LBD (177 to 462 residues) transfected in HEK293T cells assessed as fold activation at 10 uM incubated for 14 to 16 hrs by Renilla/Firefly dual-luciferase reporter assay. Format: cell-based. The conditions noted are these: time 14-16 hrs.

The target of experiment [14] is T3, Oxysterols receptor LXR-alpha (Homo sapiens) (UniProt Q13133).
T3 sequence (whole entry): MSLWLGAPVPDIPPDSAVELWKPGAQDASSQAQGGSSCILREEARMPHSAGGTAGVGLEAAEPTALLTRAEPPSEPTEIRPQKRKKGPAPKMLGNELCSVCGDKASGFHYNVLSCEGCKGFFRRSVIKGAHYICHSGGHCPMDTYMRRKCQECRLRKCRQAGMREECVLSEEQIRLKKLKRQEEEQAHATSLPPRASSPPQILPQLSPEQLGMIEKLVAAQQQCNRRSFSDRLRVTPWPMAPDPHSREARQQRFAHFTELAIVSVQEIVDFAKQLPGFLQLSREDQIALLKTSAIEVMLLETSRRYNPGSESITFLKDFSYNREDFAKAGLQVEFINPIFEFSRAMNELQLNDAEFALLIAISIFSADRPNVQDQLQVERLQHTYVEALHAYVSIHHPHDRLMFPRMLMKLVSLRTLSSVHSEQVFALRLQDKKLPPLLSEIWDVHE
The experiment is described as follows: Agonist activity at human GAL4 DBD-fused LXRalpha LBD (182 to 447 residues) transfected in HEK293T cells assessed as fold activation at 10 uM incubated for 14 to 16 hrs by Renilla/Firefly dual-luciferase reporter assay. In kind it is cell-based. The conditions noted are these: time 14-16 hrs.

The species named for experiment [15] is Mus musculus. As to the kind of experiment: Cardioprotective activity in Langendorff-perfused wild-type C57BL/6 mouse model of coronary occlusion induced ischemia/reperfusion assessed as increase in left ventricular developed pressure at 3 nmol/L followed by ischemia for 20 mins and measured 2 hrs after reperfusion […]. The conditions noted are these: time 140.0 min. In kind it is functional, organism-based.

Experiment [16] concerns the target T4, Peroxisome proliferator-activated receptor alpha (Homo sapiens) (UniProt Q07869).
T4 sequence (whole entry): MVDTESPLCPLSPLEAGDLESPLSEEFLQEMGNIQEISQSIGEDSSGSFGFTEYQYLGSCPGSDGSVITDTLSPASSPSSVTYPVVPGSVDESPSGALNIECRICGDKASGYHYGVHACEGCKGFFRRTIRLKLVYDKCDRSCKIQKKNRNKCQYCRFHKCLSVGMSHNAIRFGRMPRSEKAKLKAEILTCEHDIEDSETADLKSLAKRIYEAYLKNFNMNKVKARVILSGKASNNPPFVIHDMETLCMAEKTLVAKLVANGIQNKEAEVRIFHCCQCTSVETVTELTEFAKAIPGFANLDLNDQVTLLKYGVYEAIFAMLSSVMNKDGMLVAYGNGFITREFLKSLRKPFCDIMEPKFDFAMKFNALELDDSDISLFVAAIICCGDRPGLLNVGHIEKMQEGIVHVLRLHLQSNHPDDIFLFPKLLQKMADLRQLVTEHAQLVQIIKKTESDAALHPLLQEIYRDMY
As to the kind of experiment: Agonist activity at human GAL4 DBD-fused PPARalpha ( 164 to 466 residues) LBD transfected in HEK293T cells assessed as fold activation at 10 uM incubated for 14 to 16 hrs by Renilla/Firefly dual-luciferase reporter assay. The conditions noted are these: filed as agonist, time 14-16 hrs. In kind it is cell-based.

Experiment [17] addresses T5, Peroxisome proliferator-activated receptor delta (Homo sapiens) (UniProt Q03181).
T5 sequence (whole entry): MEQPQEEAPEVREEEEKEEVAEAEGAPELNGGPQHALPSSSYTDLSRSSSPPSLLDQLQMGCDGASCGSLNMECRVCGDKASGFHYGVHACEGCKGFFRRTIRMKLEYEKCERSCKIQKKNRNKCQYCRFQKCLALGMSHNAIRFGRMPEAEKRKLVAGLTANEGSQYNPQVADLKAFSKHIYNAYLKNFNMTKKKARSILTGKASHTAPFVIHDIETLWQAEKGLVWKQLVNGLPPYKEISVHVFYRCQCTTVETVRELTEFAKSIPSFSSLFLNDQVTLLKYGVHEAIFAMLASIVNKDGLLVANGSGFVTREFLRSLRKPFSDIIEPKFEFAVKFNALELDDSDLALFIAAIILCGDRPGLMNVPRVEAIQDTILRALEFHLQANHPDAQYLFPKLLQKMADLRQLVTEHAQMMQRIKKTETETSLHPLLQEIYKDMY
The experiment is described as follows: Agonist activity at human GAL4 DBD-fused PPARdelta LBD (138 to 441 residues) transfected in HEK293T cells assessed as fold activation at 10 uM incubated for 14 to 16 hrs by Renilla/Firefly dual-luciferase reporter assay. Format: cell-based. The conditions noted are these: time 14-16 hrs.

The subject of experiment [18] is SGBS. The experiment is described as follows: Induction of browning in human SGBS cells assessed as increase in UQCRC2 mRNA expression by qRT-PCR analysis. The conditions noted are these: dose 0.01-1 µM. In kind it is functional, cell-based.

Active and inactive are the calls of the source. No cut-off for these calls is given here.

Turning to `O=C(NC12CC3CC(CC(C3)C1)C2)N[C@H]1CC[C@H](Oc2ccc(C(=O)O)cc2)CC1`, the outcome with Heart [1] was Active. In addition, the result in the experiment on Heart [2] was inactive.

Regarding `CC[C@@H](Cc1ccc(C(=O)NCc2ccc(OC)cc2C(F)(F)F)cc1)C(=O)O`, the outcome in the experiment with SGBS [3], with SGBS [6] and in the experiment on SGBS [9] was inactive. The result in the experiment with SGBS [4], with SGBS [5], with SGBS [7] and in the experiment on SGBS [8] was Active.

For the compound `CC[C@H](Cc1ccc(C(=O)NCc2ccc(OC)cc2C(F)(F)F)cc1)C(=O)O`, the outcome (with SGBS [3]; in [10]; in the experiment on Heart [2]; in experiment [13]; in experiment [14]; in [17]) was inactive. In addition, the outcome (in the experiment with SGBS [4]; in the experiment with SGBS [5]; in the experiment on Heart [11]; in the experiment listed under Mus musculus [12]; in the experiment listed under Mus musculus [15]; in experiment [16]) was Active. Also, the result with SGBS [6], with SGBS [7], in the experiment with SGBS [8] and with SGBS [9] was Active.

As to `CN(CCOc1ccc(CC2SC(=O)NC2=O)cc1)c1ccccn1` (configuration not stated), in the experiment with SGBS [18], the Activity entry was “Dose-Dependent Effect”. Also, the result in the experiment with SGBS [8] was Active.
